Source: patent US10988482B2, “IRAK4 inhibitor and use thereof” (BEIJING HANMI PHARMACEUTICAL CO., LTD., priority 2015, dated 2021)

Target: IRAK4 kinase (Homo sapiens (Human), UniProt Q9NWZ3)
Experiment: IRAK4 kinase activity inhibition assay (ADP-Glo)
Type: biochemical
Settings: 10 μM ATP, MBP substrate, 60 min at 25° C.
Description: IRAK4 kinase (purchased from Life Technologies, Cat. No.: PR5612U) was diluted to 2 folds of the final concentration (the final concentration is 0.76 ng/μL) with reaction buffer (40 mM Tris-HCl, pH 7.5; 20 mM MgCl2; 0.1 mg/mL BSA; 1 mM DTT), and added to a 384-well plate at 5 μL/well. The test drugs were 10-fold serial diluted from 10 μM to set six concentration points and added to the test wells of the 384-well plate at 2.5 μL/well. After incubation for 10 min at 25° C., 10 μM of ATP and […] of an enzyme reaction substrate, myelin basic protein MBP (purchased from SignalChem, Cat. No.: M42-51N) were added at 2.5 µL/well, and reacted at 25° C. for 60 minutes. After the reaction was completed, the kinase activity assay was performed using the ADP-Glo™ kinase assay kit (purchased from Promega, Cat. No.: V9102) according to the manufacture's instruction, i.e., 10 μL of ADP-Glo reaction reagent was first added and reacted at 25° C. for 40 minutes, 10 μL of the solution to be tested was taken and mixed with 10 μL of ADP-Glo detection reagent, and reacted at 25° C. for 30 minutes. The kinase activity was then detected, and the IC50 values of the test drugs were calculated.

Sequence of IRAK4 kinase (Q9NWZ3 whole entry): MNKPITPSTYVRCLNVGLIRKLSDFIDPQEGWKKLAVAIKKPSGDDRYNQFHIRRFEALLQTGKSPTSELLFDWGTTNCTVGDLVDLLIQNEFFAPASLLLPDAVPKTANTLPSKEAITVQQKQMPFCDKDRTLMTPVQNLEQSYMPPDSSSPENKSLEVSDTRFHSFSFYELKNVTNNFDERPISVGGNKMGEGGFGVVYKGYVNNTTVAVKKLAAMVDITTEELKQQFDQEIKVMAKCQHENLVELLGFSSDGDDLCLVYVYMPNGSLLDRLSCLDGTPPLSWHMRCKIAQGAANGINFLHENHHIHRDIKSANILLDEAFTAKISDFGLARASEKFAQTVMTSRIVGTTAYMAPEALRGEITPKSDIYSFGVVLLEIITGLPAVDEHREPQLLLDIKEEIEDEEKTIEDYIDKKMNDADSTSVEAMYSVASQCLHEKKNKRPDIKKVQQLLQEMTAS

Structure (SMILES)	IC50 [nM]
Cc1cc(Nc2nc(N[C@H]3CC[C@H](O)CC3)c3sccc3n2)sn1 [Compound 1, trans-4-((2-((3-methylisothiazol-5-yl)amino)thieno[3,2-d]pyrimidin-4-yl)amino)cyclohexanol]	≤ 100
Cc1cc(Nc2nc(NC3CC(O)C3)c3sccc3n2)sn1 (stereo not drawn) [Compound 2]	≤ 100
Cc1cc(Nc2nc(N[C@H]3C[C@@](C)(O)C3)c3sccc3n2)sn1 [Compound 3]	≤ 100
Cc1cc(Nc2nc(N[C@H]3CC[C@@H](O)C3)c3sccc3n2)sn1 [Compound 4]	≤ 100
Cc1cc(Nc2nc(N[C@H]3CC[C@H](O)C3)c3sccc3n2)sn1 [Compound 5]	100 to 1000
Cc1cc(Nc2nc(NC3CCC(C)(O)C3)c3sccc3n2)sn1 (stereo not drawn) [Compound 6]	100 to 1000
Cc1cc(Nc2nc(N[C@@H]3C[C@H](CO)[C@@H](O)[C@H]3O)c3sccc3n2)sn1 [Compound 7]	≤ 100
Cc1cc(Nc2nc(N[C@H]3CC[C@@H](O)CC3)c3sccc3n2)sn1 [Compound 8]	≤ 100
Cc1cc(Nc2nc(NC3CCC(CO)CC3)c3sccc3n2)sn1 (stereo not drawn) [Compound 10]	≤ 100
Cc1cc(Nc2nc(NC3CCC(O)C(C)C3)c3sccc3n2)sn1 (stereo not drawn) [Compound 11]	100 to 1000
CCC1(O)CCC(Nc2nc(Nc3cc(C)ns3)nc3ccsc23)CC1 (stereo not drawn) [Compound 12]	100 to 1000
Cc1cc(Nc2nc(NC3CCC(C(N)=O)CC3)c3sccc3n2)sn1 (stereo not drawn) [Compound 13]	100 to 1000
Cc1cc(Nc2nc(N[C@@H]3CC[C@H](O)[C@@H](O)C3)c3sccc3n2)sn1 [Compound 14]	≤ 100
Cc1cc(Nc2nc(O[C@H]3CC[C@H](O)CC3)c3sccc3n2)sn1 [Compound 15]	100 to 1000
CO[C@H]1CC[C@H](Nc2nc(Nc3cc(C)ns3)nc3ccsc23)CC1 [Compound 16]	100 to 1000
Cc1cc(Nc2nc(N[C@H]3CC[C@H](O)CC3)c3sccc3n2)on1 [Compound 17]	100 to 1000
Cn1cc(Nc2nc(N[C@H]3CC[C@H](O)CC3)c3sccc3n2)cn1 [Compound 18]	≤ 100
O[C@H]1CC[C@H](Nc2nc(Nc3cnoc3)nc3ccsc23)CC1 [Compound 19]	100 to 1000
COc1cc(Nc2nc(N[C@@H]3C[C@H](CO)[C@@H](O)[C@H]3O)c3sccc3n2)ccn1 [Compound 20]	≤ 100
O[C@H]1CC[C@H](Nc2nc(Nc3ccncc3)nc3ccsc23)CC1 [Compound 21]	1000 to 10000
Cc1cc(Nc2nc(N[C@H]3CC[C@](C)(O)CC3)c3sccc3n2)cc(C)n1 [Compound 22]	100 to 1000
COc1cc(Nc2nc(N[C@H]3CC[C@](C)(O)CC3)c3sccc3n2)ccn1 [Compound 23]	100 to 1000

Structure (SMILES)	IC50 [nM]
Cc1cc(Nc2nc(N(C)C3CCC(C)(O)CC3)c3sccc3n2)sn1 (stereo not drawn) [Compound 24, 1-methyl-4-(methyl(2-((3-methylisothiazol-5-yl)amino)thieno[3,2-d]pyrimidin-4-yl)amino)cyclohexanol]	1000 to 10000
O[C@H]1CC[C@H](Nc2nc(Nc3cnn(-c4ccccc4)c3)nc3ccsc23)CC1 [Compound 25, trans-4-((2-((1-phenyl-1H-pyrazol-4-yl)amino)thieno[3,2-d]pyrimidin-4-yl)amino)cyclohexanol]	≤ 100
OCCn1cc(Nc2nc(N[C@H]3CC[C@H](O)CC3)c3sccc3n2)cn1 [Compound 26]	≤ 100
O[C@H]1CC[C@H](Nc2nc(Nc3cnn(C4CCCC4)c3)nc3ccsc23)CC1 [Compound 27]	100 to 1000
O[C@H]1CC[C@H](Nc2nc(Nc3cnn(C4CCCNC4)c3)nc3ccsc23)CC1 (stereo partly drawn) [Compound 28]	≤ 100
Oc1ccccc1-n1cc(Nc2nc(N[C@H]3CC[C@H](O)CC3)c3sccc3n2)cn1 [Compound 29]	100 to 1000
Oc1cccc(-n2cc(Nc3nc(N[C@H]4CC[C@H](O)CC4)c4sccc4n3)cn2)c1 [Compound 30]	100 to 1000
Oc1ccc(-n2cc(Nc3nc(N[C@H]4CC[C@H](O)CC4)c4sccc4n3)cn2)cc1 [Compound 31]	100 to 1000
O[C@H]1CC[C@H](Nc2nc(Nc3cnn(-c4cccc(N5CCOCC5)c4)c3)nc3ccsc23)CC1 [Compound 34]	100 to 1000
O[C@H]1CC[C@H](Nc2nc(Nc3cnn(-c4ccc(N5CCOCC5)cc4)c3)nc3ccsc23)CC1 [Compound 35]	100 to 1000
O[C@H]1CC[C@H](Nc2nc(Nc3cnn(-c4ccccn4)c3)nc3ccsc23)CC1 [Compound 36]	100 to 1000
O[C@H]1CC[C@H](Nc2nc(Nc3cnn(-c4cccnc4)c3)nc3ccsc23)CC1 [Compound 37]	≤ 100
O[C@H]1CC[C@H](Nc2nc(Nc3cnn(-c4ccncc4)c3)nc3ccsc23)CC1 [Compound 38]	≤ 100
O[C@H]1CC[C@H](Nc2nc(Nc3cnn(-c4ccncn4)c3)nc3ccsc23)CC1 [Compound 39]	100 to 1000
O[C@H]1CC[C@H](Nc2nc(Nc3cnn(-c4cncnc4)c3)nc3ccsc23)CC1 [Compound 40]	100 to 1000
Cc1ncccc1-n1cc(Nc2nc(N[C@H]3CC[C@H](O)CC3)c3sccc3n2)cn1 [Compound 41]	1000 to 10000
Cc1cncc(-n2cc(Nc3nc(N[C@H]4CC[C@H](O)CC4)c4sccc4n3)cn2)c1 [Compound 42]	100 to 1000
Cc1cc(-n2cc(Nc3nc(N[C@H]4CC[C@H](O)CC4)c4sccc4n3)cn2)ccn1 [Compound 43]	100 to 1000
C[C@]1(O)CC[C@H](Nc2nc(Nc3cnn(C(=O)CC4CCNCC4)c3)nc3ccsc23)CC1 [Compound 44]	100 to 1000
CN1CCN(C(=O)c2cc(Nc3nc(N[C@H]4CC[C@H](O)CC4)c4sccc4n3)sn2)CC1 [Compound 45, (5-((4-((trans-4-hydroxycyclohexyl)amino)thieno[3,2-d]pyrimidin-2-yl)amino)isothiazol-3-yl)(4-methylpiperazin-1-yl)methanone]	100 to 1000
COCCNC(=O)c1csc(Nc2nc(N[C@H]3CC[C@](C)(O)CC3)c3sccc3n2)c1 [Compound 46]	100 to 1000
C[C@]1(O)CC[C@H](Nc2nc(Nc3cc(C(=O)N[C@H]4CCNC4)cs3)nc3ccsc23)CC1 [Compound 47]	≤ 100

Structure (SMILES)	IC50 [nM]
C[C@]1(O)CC[C@H](Nc2nc(Nc3cc(C(=O)N[C@@H]4CCNC4)cs3)nc3ccsc23)CC1 [Compound 48]	≤ 100
C[C@]1(O)CC[C@H](Nc2nc(Nc3cc(C(=O)NC4CCNCC4)cs3)nc3ccsc23)CC1 [Compound 49]	100 to 1000
CN1CCN(C(=O)c2csc(Nc3nc(N[C@H]4CC[C@](C)(O)CC4)c4sccc4n3)c2)CC1 [Compound 50]	100 to 1000
C[C@]1(O)CC[C@H](Nc2nc(Nc3cc(C(=O)NC4CCNCC4)n[nH]3)nc3ccsc23)CC1 [Compound 51]	1000 to 10000
C[C@]1(O)CC[C@H](Nc2nc(Nc3cc(C(=O)NCCCO)ns3)nc3ccsc23)CC1 [Compound 52]	≤ 100
COCCNC(=O)c1cc(Nc2nc(N[C@H]3CC[C@](C)(O)CC3)c3sccc3n2)sn1 [Compound 53]	100 to 1000
C[C@]1(O)CC[C@H](Nc2nc(Nc3cc(C(=O)NCC4CCNCC4)ns3)nc3ccsc23)CC1 [Compound 54]	≤ 100
C[C@]1(O)CC[C@H](Nc2nc(Nc3cc(C(=O)N[C@@H]4CCNC4)ns3)nc3ccsc23)CC1 [Compound 55]	≤ 100
C[C@]1(O)CC[C@H](Nc2nc(Nc3cc(C(=O)N[C@@H]4CCCNC4)ns3)nc3ccsc23)CC1 [Compound 56]	≤ 100
C[C@]1(O)CC[C@H](Nc2nc(Nc3cc(C(=O)NC4CCOCC4)ns3)nc3ccsc23)CC1 [Compound 57]	≤ 100
C[C@]1(O)CC[C@H](Nc2nc(Nc3cc(C(=O)NC4CCNCC4)ns3)nc3ccsc23)CC1 [Compound 58]	≤ 100
CN1CCC(NC(=O)c2cc(Nc3nc(N[C@H]4CC[C@](C)(O)CC4)c4sccc4n3)sn2)CC1 [Compound 59]	≤ 100
CC(=O)N1CCC(NC(=O)c2cc(Nc3nc(N[C@H]4CC[C@](C)(O)CC4)c4sccc4n3)sn2)CC1 [Compound 60]	100 to 1000
C[C@]1(O)CC[C@H](Nc2nc(Nc3cc(C(=O)Nc4ccccc4)ns3)nc3ccsc23)CC1 [Compound 61]	1000 to 10000
C[C@]1(O)CC[C@H](Nc2nc(Nc3cc(C(=O)Nc4cccnc4)ns3)nc3ccsc23)CC1 [Compound 62]	100 to 1000
C[C@]1(O)CC[C@H](Nc2nc(Nc3cc(C(=O)Nc4ccncc4)ns3)nc3ccsc23)CC1 [Compound 63]	100 to 1000
C[C@]1(O)CC[C@H](Nc2nc(Nc3ccc(C(=O)N[C@@H]4CCNC4)cc3)nc3ccsc23)CC1 [Compound 64]	100 to 1000
C[C@]1(O)CC[C@H](Nc2nc(Nc3cccc(C(=O)NC4CCNCC4)c3)nc3ccsc23)CC1 [Compound 65]	100 to 1000
C[C@]1(O)CC[C@H](Nc2nc(Nc3ccc(C(=O)NC4CCNCC4)cc3)nc3ccsc23)CC1 [Compound 66]	100 to 1000
CNC1CCN(C(=O)c2ccc(Nc3nc(N[C@H]4CC[C@H](O)CC4)c4sccc4n3)cc2)CC1 [Compound 67]	100 to 1000
CN(C)C1CCN(C(=O)c2ccc(Nc3nc(N[C@H]4CC[C@H](O)CC4)c4sccc4n3)cc2)CC1 [Compound 68]	100 to 1000
O[C@H]1CC[C@H](Nc2nc(Nc3ccc(OC4CCOC4)cc3)nc3ccsc23)CC1 (stereo partly drawn) [Compound 69, trans-4-((2-((4-((tetrahydrofuran-3-yl)oxy)phenyl)amino)thieno[3,2-d]pyrimidin-4-yl)amino)cyclohexanol]	100 to 1000
